# PubChem BioAssay AID1963827 (Molecular Pharmacology Branch, DTP, NCI, 2024)
# “And” between values parts separate entries of the source, which are not always exact repeats. Equal values may be shown once.
# Test system: 994946-033-R-J1-PDC complex spheroid viability
# Assay: Anticancer human tumor 994946-033-R-J1-PDC patient-derived melanoma cell line growth inhibition [POLQ]
# Conditions: for viability, T/C: stronger effect = lower value
# Experimental: Multicellular complex tumor spheroid response to Polymerase (POL) inhibitors (novobiocin, ART-558, RP6685) in combination with a variety of drugs and investigational agents in selected tumor cell lines
# The POL inhibitors (novobiocin, ART-558, and RP6685) were evaluated both individually and in combination with standard of care and investigational anticancer small molecules within a complex spheroid model of solid tumors. . Complex spheroids include a stromal component modeled by human endothelial cells (HUVEC) and fibroblasts modeled by human mesenchymal stem cells (MSCs). The concentration ranges selected for each drug and investigational agent were based upon clinically achievable concentrations if the clinical Cmax of the agent was known.
# Compounds. The drugs and investigational agents: novobiocin (NSC847541), ART-558 (NSC835418), RP-6685 (NSC848927), peposertib (NSC802822), ceralasertib (NSC780249), elimusertib (NSC800525), camonsertib (NSC841442), AZD-1390 (NSC803789), olaparib (NSC753686), talazoparib (NSC767125), rucaparib (NSC756644), sotorasib (NSC818433), MRTX-1133 (NSC836407), SN-38 (NSC673596), topotecan (NSC609699), epotoside (NSC141540), doxorubicin (NSC123127), gemcitabine (NSC613327), 5-fluorouracil (NSC19893), paclitaxel (NSC125973), vemurafenib (NSC761431), MSA-2 (NSC828583), SN-011 (NSC837082), adavosertib (NSC754352), prexasertib (NSC758257), carboplatin (NSC241240) and oxaliplatin (NSC266046), were obtained from the National Cancer Institute (NCI) Developmental Therapeutics Program Chemical Repository (21). The FDA-approved anticancer drug set is available from the Developmental Therapeutics Program at https://dtp.cancer.gov/organization/dscb/obtaining/. […] The stock solutions were prepared in dimethyl sulfoxide (DMSO, Sigma-Aldrich, St. Louis, MO, cat. D2650), except for the platinum compounds which were prepared in saline (Quality Biological, Gaithersburg, MD, cat. 114-055-101), at 800-fold the tested concentration and stored at -70 degrees C prior to their use. All drugs and investigational agents were tested over a range starting from a high concentration at or near the clinical Cmax and decreasing in half-log increments. If the clinical Cmax for an agent had not been determined, the highest concentration tested was 10 microM, except for SN-38, which was tested at a high concentration of 1 microM.
# Cell Culture. All cells were maintained in an incubator at 37 degrees C and 5% CO2 with 95% humidity. The PDC lines were cultured according to standard operating procedures established by the NCI PDMR (https://pdmr.cancer.gov). Table 3 of the manuscript, lists the cell lines along with the number of the three cell types plated to form the mct-spheroids and media for tumor cell growth. After thawing, all PDC lines, except 997537-175-T-J1-PDC and 415267-285-R-J2-PDC, were cultured in Matrigel-coated flasks prepared with a working solution of 1X Ham's F-12 nutrient mix, without supplementation (Thermo Fisher Scientific, cat. 11765054), 100 U/mL penicillin-streptomycin (Thermo Fisher Scientific, cat. 15140122), and 2.5% Matrigel (Corning Inc., Corning, NY, cat. 354248) for the first three passages. The two PDC lines 997537-175-T-J1-PDC and 415267-285-R-J2-PDC were cultured on uncoated flasks. The 857933-349-R-J2-PDC line was cultured in 6C/Colon 1B media containing advanced DMEM/F-12 (Thermo Fisher Scientific, cat. 12634028), 10 mM HEPES (Thermo Fisher Scientific, cat. 15630080), 1X GlutaMAX supplement (Thermo Fisher Scientific, cat. 35050061), 0.1 mg/mL primocin (InvivoGen, San Diego, CA, cat. ant-pm-2), 10% defined fetal bovine serum, heat inactivated (HyClone Laboratories Inc., Logan, UT, cat. SH30070.03HI), 50% L-WRN conditioned media (ATCC, cat. CRL-3276), 1.25 mM N-Acetyl-L-cysteine (Sigma-Aldrich, cat. A9165), 10 mM nicotinamide (Sigma-Aldrich, cat. N0636), 1X B-27 supplement (Thermo Fisher Scientific, cat. 17504044), 1X N-2 supplement (Thermo Fisher Scientific, cat. […]
# 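Also: spheroids exposed to drugs for 7 days.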
# 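For viability, T/C in this document: 100% = DMSO vehicle treated spheroids.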
compound,measurement,setting,value
CC[C@@]1(O)C(=O)OCc2c1cc1n(c2=O)Cc2cc3c(CN(C)C)c(O)ccc3nc2-1,"viability, T/C",compound 0.000316 µM,86.1% and 53.9% and 105%
same,"viability, T/C",compound 0.001 µM,101% and 95.2% and 87.8%
same,"viability, T/C",compound 0.00316 µM,86.5% and 108% and 111%
same,"viability, T/C",compound 0.01 µM,71.5% and 74% and 68.2%
same,"viability, T/C",compound 0.0316 µM,28% and 52% and 41.7%
same,"viability, T/C",compound 0.1 µM,13.2% and 9.44% and 10.1%
same,IC50,curve of compound,0.0176 µM and 0.0328 µM and 0.0221 µM
CCc1cc2c(N3CCc4c(cc(Cn5ccnc5)cc4-c4cn(C)nc4C(F)(F)F)C3=O)cc(C)nc2c(OC)n1,"viability, T/C",compound 0.0316 µM,79% and 66% and 74.7%
same,"viability, T/C",compound 0.1 µM,78.9% and 75.4% and 75.9%
same,"viability, T/C",compound 0.316 µM,90.3% and 75% and 87.3%
same,"viability, T/C",compound 1 µM,93.3% and 71.1% and 84.3%
same,"viability, T/C",compound 3.16 µM,74.8% and 70.8% and 89.7%
same,"viability, T/C",compound 10 µM,72% and 68.3% and 85.2%
same,IC50,curve of compound,> 10 µM
COc1cc2cc(C(=O)CCC(=O)O)sc2cc1OC,"viability, T/C",compound 0.0316 µM,75.1% and 90.9% and 96.1%
same,"viability, T/C",compound 0.1 µM,84.1% and 72% and 94.5%
same,"viability, T/C",compound 0.316 µM,85.4% and 111% and 76.8%
same,"viability, T/C",compound 1 µM,88.2% and 64.1% and 113%
same,"viability, T/C",compound 3.16 µM,96% and 104% and 75.2%
same,"viability, T/C",compound 10 µM,95.3% and 89.2% and 61.4%
same,IC50,curve of compound,> 10 µM
CC1COCCN1c1cc(-c2ccnn2C)c2ccnc(-c3ccn[nH]3)c2n1 (configuration not stated) + Nc1ccc(C#CCN(C(=O)Cc2ncc(C(F)(F)F)cc2C(F)(F)F)c2ccc(F)cc2)nn1,IC50,"curve of first compound, second compound 0.0316 µM",0.0644 µM
same,IC50,"curve of first compound, second compound 0.1 µM",0.0729 µM
same,IC50,"curve of first compound, second compound 0.316 µM",0.0725 µM
same,IC50,"curve of first compound, second compound 1 µM",0.0739 µM
same,IC50,"curve of first compound, second compound 3.16 µM",0.062 µM
same,IC50,"curve of first compound, second compound 10 µM",0.0806 µM
same,"viability, T/C","second compound 0.0316 µM, first compound 0.0316 µM",65.8%
same,"viability, T/C","second compound 0.0316 µM, first compound 0.1 µM",41.7%
same,"viability, T/C","second compound 0.0316 µM, first compound 0.316 µM",21.8%
same,"viability, T/C","second compound 0.0316 µM, first compound 1 µM",29.1%
same,"viability, T/C","second compound 0.0316 µM, first compound 3.16 µM",19.8%
same,"viability, T/C","second compound 0.0316 µM, first compound 10 µM",15.4%
same,"viability, T/C","second compound 0.1 µM, first compound 0.0316 µM",86.3%
same,"viability, T/C","second compound 0.1 µM, first compound 0.1 µM",31.8%
same,"viability, T/C","second compound 0.1 µM, first compound 0.316 µM",29.6%
same,"viability, T/C","second compound 0.1 µM, first compound 1 µM",26%
same,"viability, T/C","second compound 0.1 µM, first compound 3.16 µM",16.3%
same,"viability, T/C","second compound 0.1 µM, first compound 10 µM",9.84%
same,"viability, T/C","second compound 0.316 µM, first compound 0.0316 µM",70.5%
same,"viability, T/C","second compound 0.316 µM, first compound 0.1 µM",40.5%
same,"viability, T/C","second compound 0.316 µM, first compound 0.316 µM",26.1%
same,"viability, T/C","second compound 0.316 µM, first compound 1 µM",23.6%
same,"viability, T/C","second compound 0.316 µM, first compound 3.16 µM",17.5%
same,"viability, T/C","second compound 0.316 µM, first compound 10 µM",9.71%
same,"viability, T/C","second compound 1 µM, first compound 0.0316 µM",75.5%
same,"viability, T/C","second compound 1 µM, first compound 0.1 µM",33.7%
same,"viability, T/C","second compound 1 µM, first compound 0.316 µM",32.9%
same,"viability, T/C","second compound 1 µM, first compound 1 µM",33.6%
same,"viability, T/C","second compound 1 µM, first compound 3.16 µM",15.4%
same,"viability, T/C","second compound 1 µM, first compound 10 µM",14.1%
same,"viability, T/C","second compound 3.16 µM, first compound 0.0316 µM",60.7%
same,"viability, T/C","second compound 3.16 µM, first compound 0.1 µM",42.4%
same,"viability, T/C","second compound 3.16 µM, first compound 0.316 µM",22.1%
same,"viability, T/C","second compound 3.16 µM, first compound 1 µM",21.1%
same,"viability, T/C","second compound 3.16 µM, first compound 3.16 µM",25.6%
same,"viability, T/C","second compound 3.16 µM, first compound 10 µM",14.1%
same,"viability, T/C","second compound 10 µM, first compound 0.0316 µM",76.1%
same,"viability, T/C","second compound 10 µM, first compound 0.1 µM",44%
same,"viability, T/C","second compound 10 µM, first compound 0.316 µM",21.1%
same,"viability, T/C","second compound 10 µM, first compound 1 µM",21.7%
same,"viability, T/C","second compound 10 µM, first compound 3.16 µM",21.6%
same,"viability, T/C","second compound 10 µM, first compound 10 µM",15.8%
COc1ccc([C@@H](O)c2cc(-c3ncnc4cc(N5CCOCC5)ccc34)c(F)cc2Cl)nn1,"viability, T/C",compound 0.0316 µM,115% and 94.1% and 79.4%
same,"viability, T/C",compound 0.1 µM,91.2% and 92.7% and 91%
same,"viability, T/C",compound 0.316 µM,81.5% and 95.9% and 99.5%
same,"viability, T/C",compound 1 µM,49.6% and 78.9% and 67.1%
same,"viability, T/C",compound 3.16 µM,59.4% and 74.8% and 59%
same,"viability, T/C",compound 10 µM,43.6% and 27.3% and 43.8%
same,IC50,curve of compound,4.11 µM and 5.57 µM and > 10 µM
C=CCn1c(=O)c2cnc(Nc3ccc(N4CCN(C)CC4)cc3)nc2n1-c1cccc(C(C)(C)O)n1,"viability, T/C",compound 0.00316 µM,106% and 121% and 99.1%
same,"viability, T/C",compound 0.01 µM,109% and 114% and 99.8%
same,"viability, T/C",compound 0.0316 µM,113% and 106% and 123%
same,"viability, T/C",compound 0.1 µM,105% and 97.1% and 72.5%
same,"viability, T/C",compound 0.316 µM,97.5% and 68.8% and 88.4%
same,"viability, T/C",compound 1 µM,27.4% and 34.9% and 30.9%
same,IC50,curve of compound,0.691 µM and 0.608 µM and 0.651 µM
